Measurements published in patent publication US10174067B2, “Type of cytidine derivative and application thereof” (priority 2014, dated 2019).
Marks after values point to notes of the source that are not given here.

Assays:
[1] = tested on: ICR mice; assay: in vivo; conditions: female ICR mice; single-dose ip
Method in brief: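 MTD, the dose without mortality, body-weight loss over 10% from Day 0 or marked adverse signs, was found by stepwise up/down single intraperitoneal dosing of female SPF ICR mice. Vehicle: ethanol:Cremophor EL:saline 5:5:90. Animals weighed daily and clinically checked twice daily for up to 14 days.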

[2] = Method in brief: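 Test compounds formulated in ethanol:Cremophor EL:saline (5:5:90), vehicle alone as control, in HCT-116 subcutaneous xenografts in female Balb/c nudes (6/group, start 60–150 mm^3). Weight measured three times weekly, tumour weight at end; unpaired t-test on Mean±SEM data.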
[3] = tested on: HCT-116 colon cancer xenografts; assay: Tumor growth inhibition of HCT-116 colon cancer xenografts in tumor-bearing nude mice (tumor volume, TGI %, RTV, T/C %); format: in vivo, Balb/c Nude mice; conditions: G10-G16 groups, single IP 400 mg/kg
Method in brief: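 Tumors in HCT-116-inoculated nude mice were sized three times weekly by diameter, with volume V=3/4π(D/2)^3. Significance set at P<0.05.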

[4] = Day 1, G10-G16 groups, single IP 400 mg/kg, Mean±SEM
[5] = Day 2, G10-G16 groups, single IP 400 mg/kg, Mean±SEM
[6] = Day 4, G10-G16 groups, single IP 400 mg/kg, Mean±SEM
[7] = Day 7, G10-G16 groups, single IP 400 mg/kg, Mean±SEM
[8] = Day 9, G10-G16 groups, single IP 400 mg/kg, Mean±SEM
[9] = Day 11, G10-G16 groups, single IP 400 mg/kg, Mean±SEM
[10] = Day 14, G10-G16 groups, single IP 400 mg/kg, Mean±SEM
[11] = Day 16, G10-G16 groups, single IP 400 mg/kg, Mean±SEM
[12] = Day 18, G10-G16 groups, single IP 400 mg/kg, Mean±SEM
[13] = Day 21, G10-G16 groups, single IP 400 mg/kg, Mean±SEM
[14] = Day 23, G10-G16 groups, single IP 400 mg/kg, Mean±SEM
[15] = Day 25, G10-G16 groups, single IP 400 mg/kg, Mean±SEM
[16] = Day 28, G10-G16 groups, single IP 400 mg/kg, Mean±SEM
[17] = Day 30, G10-G16 groups, single IP 400 mg/kg, Mean±SEM

O=C(COc1nc(Cl)c(Cl)cc1Cl)OCC1OC(n2cc(-c3cn(Cc4ccccc4)nn3)c(NC(=O)OCc3ccc([N+](=O)[O-])cc3)nc2=O)C(F)(F)C1O (centres unmarked) [Compound G13]
dose that could be tolerated (maximum tolerated dose, MTD) [1]: 400 mg/kg
Weight change rate, Day 0 ([2]; Day 0, G10-G16 groups, single IP 400 mg/kg): 0.00%
Weight of mice, Day 0 ([2]; Day 0, G10-G16 groups, single IP 400 mg/kg, Mean±SEM): 20.43 ± 0.27 g
Weight change rate, Day 1 [2, 4]: −6.73 ± 0.73 %
Weight of mice, Day 1 [2, 4]: 19.05 ± 0.17 g
Weight change rate, Day 2 [2, 5]: −6.78 ± 0.95 %
Weight of mice, Day 2 [2, 5]: 19.05 ± 0.35 g
Weight change rate, Day 4 [2, 6]: −3.29 ± 1.05%
Weight of mice, Day 4 [2, 6]: 19.77 ± 0.40 g
Weight change rate, Day 7 [2, 7]: −2.67 ± 1.20%
Weight of mice, Day 7 [2, 7]: 19.90 ± 0.48 g
Weight change rate, Day 9 [2, 8]: 0.07 ± 2.05%
Weight of mice, Day 9 [2, 8]: 20.47 ± 0.64 g
Weight change rate, Day 11 [2, 9]: 0.61 ± 2.23%
Weight of mice, Day 11 [2, 9]: 20.58 ± 0.69 g
Weight change rate, Day 14 [2, 10]: 0.35 ± 2.75%
Weight of mice, Day 14 [2, 10]: 20.53 ± 0.79 g
Weight change rate, Day 16 [2, 11]: 3.83 ± 3.60%
Weight of mice, Day 16 [2, 11]: 21.25 ± 0.94 g
Weight change rate, Day 18 [2, 12]: 4.84 ± 3.19 %
Weight of mice, Day 18 [2, 12]: 21.45 ± 0.85 g
Weight change rate, Day 21 [2, 13]: 4.12 ± 3.07 %
Weight of mice, Day 21 [2, 13]: 21.30 ± 0.81 g
Day 22 Mortality ([2]; Day 22, single IP dose (mg/kg)): 0%
Weight change rate, Day 23 [2, 14]: 5.17 ± 4.24%
Weight of mice, Day 23 [2, 14]: 21.44 ± 1.05 g
Weight change rate, Day 25 [2, 15]: 9.03 ± 4.91%
Weight of mice, Day 25 [2, 15]: 22.24 ± 1.24 g
Weight change rate, Day 28 [2, 16]: 12.25 ± 3.97%
Weight of mice, Day 28 [2, 16]: 23.08 ± 0.97 g
Weight change rate, Day 30 [2, 17]: 13.32 ± 4.25%
Weight of mice, Day 30 [2, 17]: 23.30 ± 1.07 g
clinical symptoms ([2]; after single IP dose, compared with model control group): no significant differences in clinical symptoms
Day 0 (RTV) ([3]; Day 0): 1.00
Tumor volume, Day 0 ([3]; Day 0, Mean±SEM): 61.03 ± 13.76* mm^3
Day 1 (TGI %) ([3]; Day 1): 77.92%
Day 1 (RTV) ([3]; Day 1, Mean±SEM): 0.91 ± 0.12
Tumor volume, Day 1 ([3]; Day 1, Mean±SEM): 48.89 ± 5.84** mm^3
Day 2 (TGI %) ([3]; Day 2): 76.34%
Day 2 (RTV) ([3]; Day 2, Mean±SEM): 0.95 ± 0.11
Tumor volume, Day 2 ([3]; Day 2, Mean±SEM): 52.50 ± 8.43** mm^3
Day 4 (TGI %) ([3]; Day 4): 73.88%
Day 4 (RTV) ([3]; Day 4, Mean±SEM): 1.31 ± 0.07
Tumor volume, Day 4 ([3]; Day 4, Mean±SEM): 77.58 ± 16.80** mm^3
Day 7 (TGI %) ([3]; Day 7): 68.32%
Day 7 (RTV) ([3]; Day 7, Mean±SEM): 2.39 ± 0.28
Tumor volume, Day 7 ([3]; Day 7, Mean±SEM): 137.02 ± 30.02** mm^3
Day 9 (TGI %) ([3]; Day 9): 55.73%
Day 9 (RTV) ([3]; Day 9, Mean±SEM): 4.07 ± 0.37
Tumor volume, Day 9 ([3]; Day 9, Mean±SEM): 261.35 ± 79.51* mm^3
Day 11 (TGI %) ([3]; Day 11): 56.17%
Day 11 (RTV) ([3]; Day 11, Mean±SEM): 6.38 ± 0.77
Tumor volume, Day 11 ([3]; Day 11, Mean±SEM): 427.82 ± 136.59** mm^3
Day 14 (TGI %) ([3]; Day 14): 46.84%
Day 14 (RTV) ([3]; Day 14, Mean±SEM): 11.17 ± 1.45
Tumor volume, Day 14 ([3]; Day 14, Mean±SEM): 765.65 ± 247.40* mm^3
Day 16 (TGI %) ([3]; Day 16): 43.43%
Day 16 (RTV) ([3]; Day 16, Mean±SEM): 15.55 ± 1.37
Tumor volume, Day 16 ([3]; Day 16, Mean±SEM): 1024.48 ± 288.64* mm^3
Day 18 (TGI %) ([3]; Day 18): 36.04%
Day 18 (RTV) ([3]; Day 18, Mean±SEM): 19.86 ± 1.32
Tumor volume, Day 18 ([3]; Day 18, Mean±SEM): 1278.22 ± 336.74 mm^3
Day 21 (TGI %) ([3]; Day 21): 32.28%
Day 21 (RTV) ([3]; Day 21, Mean±SEM): 26.98 ± 0.99
Tumor volume, Day 21 ([3]; Day 21, Mean±SEM): 1655.72 ± 370.44 mm^3
Day 23 (TGI %) ([3]; Day 23): 39.64%
Day 23 (RTV) ([3]; Day 23, Mean±SEM): 27.42 ± 1.09
Tumor volume, Day 23 ([3]; Day 23, Mean±SEM): 1425.63 ± 355.57 mm^3
Day 25 (TGI %) ([3]; Day 25): 38.81%
Day 25 (RTV) ([3]; Day 25, Mean±SEM): 30.60 ± 1.01
Tumor volume, Day 25 ([3]; Day 25, Mean±SEM): 1580.18 ± 380.76 mm^3
Day 28 (TGI %) ([3]; Day 28): 44.77%
Day 28 (RTV) ([3]; Day 28, Mean±SEM): 35.76 ± 0.97
Tumor volume, Day 28 ([3]; Day 28, Mean±SEM): 1485.25 ± 290.76 mm^3
Day 30 (TGI %) ([3]; Day 30): 38.58%
Day 30 (RTV) ([3]; Day 30, Mean±SEM): 42.06 ± 2.09
Tumor volume, Day 30 ([3]; Day 30, Mean±SEM): 1723.43 ± 289.91 mm^3
